{"source": "patent US8293462B2", "about": "“Method of preserving early mammalian embryos by vitrification” (Central Institute for Experimental Animals, priority 2005, dated 2012)", "system": "marmoset ES cells, cell line No. 40", "experiment": "Survival of ES cell clumps after thaw, cell line No. 40", "assay_type": "cell-based, common marmoset (Callithrix jacchus)", "conditions": "FIG. 1", "source_text": "As marmoset ES cells, two cell lines, i.e., No. 40 and No. 20, which were established by the Central Institute for Experimental Animals (Japan), were employed (Sasaki E. et al., 2005, Establishment of Novel Embryonic Stem Cell Lines Derived from the Common Marmoset (Callithrix jacchus), Stem Cells. (in press)). The cell clumps separated via trypsin treatment were recovered with an egg-sampling pipette and used in the preservation experiment.\nIn the method of preservation by vitrification according to the present invention, […] PB1, 10% propylene glycol, 30% ethylene glycol, 20% Percoll®(t, and 0.3 M sucrose were used. In thaw, the SPB1 solution comprising PB1 and 0.3 M sucrose was used.\nIn preservation of the control embryos by vitrification (Fujioka T. et al., Int. J. Dev. Biol. 48: 1149-1154), a DAP213 solution comprising PB1, 2 mol of DMSO, 1 mol of acetamide, and 3 mol of propylene glycol was used. In slow freezing (Reubinoff B. E. et al., Human Reprod. Vol. 16, No. 10, 2187-2194), the SF solution comprising 10% DMSO in FCS was used.\nSubsequently, the cell clumps were introduced into a preservation tube (Nunc 375353) with 5 μl of P10, followed by cooling at 0° C. for 1 minute. Thereafter, 95 μl of PEPeS, which had been cooled to 0° C., was introduced into the tube. […]"}
{"smiles": "CC(O)CO", "note": "(centres unmarked) [propylene glycol]", "values": [{"measurement": "survival rate after thaw compared with control that had not been preserved", "setting": "pretreatment solution PB1 + 5% propylene glycol, 4 days after initiation of culture", "result": "significantly lower"}, {"measurement": "survival rate after thaw compared with control that had not been preserved", "setting": "pretreatment solution PB1 + 15% propylene glycol, 4 days of culture", "result": "did not differ from the control embryos"}]}
